Test results published in the supplement of paper PMC11208160.
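Also: IS621 bridge recombinase in Escherichia coli cells against a fixed T5 target plasmid.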

Assay: recombinant UMI read abundance after kanamycin selection (control-corrected) (log10(CPM+1)); higher = more efficient recombination; extreme values may be limits of the assay; sequences stand for … in AGTGCAGAGAAAATCGGCCAGTTTTCTCTGCCTGCAGTCCGCATGCCGTGGGACCCCTTGGGTTCTAACCTGTTGCCTAGATTTATGCAGCGGACTGCCTTTCTCCCAAAGTGATAAACCGG…AGGTTGGTTTCACT; site = the 11-nt donor
Outline: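 In Escherichia coli, a pool of donor and donor-binding-loop pairs, each with a 12-nt UMI, was tested for the IS621 bridge recombinase. Plating was on IPTG (0.07 mM) plus kanamycin, or without selection, in two replicates. Recombinant UMIs were amplified by PCR across the donor–target junction and sequenced, and counts were reported as log10(CPM+1) after averaging and control-derived scaling.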
In the case of “ACTGTAACATGGACCGGTTTTCCCGGTAATCCGTATTTGCT (site ATTGTAACTAG)”, the “recombinant UMI read abundance (log10)” value is reported as 1.55. With “ACTGTGTCATGGACCGGTTTTCCCGGTAATCCGTATTTGCA (site ACAGTATCTTG)” the “recombinant UMI read abundance (log10)” value was 2.5. With “ACTGTGTCATGGACCGGTTTTCCCGGTAATCCGTATTTGCA (site ACTGTGTCTTG)” the “recombinant UMI read abundance (log10)” value was 2.89. With “ACTTAACCATGGACCGGTTTTCCCGGTAATCCGTATTTGCA (site ACTTAACCTTG)” the “recombinant UMI read abundance (log10)” value was 0. For “ACTTAGACATGGACCGGTTTTCCCGGTAATCCGTATTTGGG (site ACATAGACTCC)”, the “recombinant UMI read abundance (log10)” value was 0.0123. With “ACTTAGACATGGACCGGTTTTCCCGGTAATCCGTATTTGGG (site ACCTAGACTCC)” the “recombinant UMI read abundance (log10)” value was 0.00452. With “ACTTAGACATGGACCGGTTTTCCCGGTAATCCGTATTTGGG (site ACGTAGACTCC)” the “recombinant UMI read abundance (log10)” value was 0.00655. For “ACTTAGACATGGACCGGTTTTCCCGGTAATCCGTATTTGGG (site ACTTAGACTCC)”, the “recombinant UMI read abundance (log10)” value was 0.0876. With “ACTTCGTCATGGACCGGTTTTCCCGGTAATCCGTATTTGTG (site ACTTCGTCTCA)” the “recombinant UMI read abundance (log10)” value was 0.306. With “ACTTCTACATGGACCGGTTTTCCCGGTAATCCGTATTTGTG (site ACATCTACTCA)” the “recombinant UMI read abundance (log10)” value was 0.0153. With “ACTTCTACATGGACCGGTTTTCCCGGTAATCCGTATTTGTG (site ACCTCTACTCA)” the “recombinant UMI read abundance (log10)” value was 0.00536. With “ACTTCTACATGGACCGGTTTTCCCGGTAATCCGTATTTGTG (site ACGTCTACTCA)” the “recombinant UMI read abundance (log10)” value was 0.0444. For “ACTTCTACATGGACCGGTTTTCCCGGTAATCCGTATTTGTG (site ACTTCTACTCA)”, the “recombinant UMI read abundance (log10)” value was 0.179. For “ACTTGTGCATGGACCGGTTTTCCCGGTAATCCGTATTTGGT (site ACTAGTGCTAC)”, the “recombinant UMI read abundance (log10)” value was 0.652. With “ACTTGTGCATGGACCGGTTTTCCCGGTAATCCGTATTTGGT (site ACTCGTGCTAC)” the “recombinant UMI read abundance (log10)” value was 0.73. In the case of “ACTTGTGCATGGACCGGTTTTCCCGGTAATCCGTATTTGGT (site ACTGGTGCTAC)”, the “recombinant UMI read abundance (log10)” value is reported as 0.211. In the case of “ACTTGTGCATGGACCGGTTTTCCCGGTAATCCGTATTTGGT (site ACTTGTGCTAC)”, the “recombinant UMI read abundance (log10)” value is reported as 1.18. In the case of “ACTTTACCATGGACCGGTTTTCCCGGTAATCCGTATTTGCT (site ACTTTACCTAG)”, the “recombinant UMI read abundance (log10)” value is reported as 0.431. In the case of “ACTTTATCATGGACCGGTTTTCCCGGTAATCCGTATTTGCA (site ACAGTATCTTG)”, the “recombinant UMI read abundance (log10)” value is reported as 2.35. With “ACTTTATCATGGACCGGTTTTCCCGGTAATCCGTATTTGCA (site ACTTTATCTTG)” the “recombinant UMI read abundance (log10)” value was 1.85. With “AGAAACACATGGACCGGTTTTCCCGGTAATCCGTATTTGTC (site AGAAACACTGA)” the “recombinant UMI read abundance (log10)” value was 2.8. In the case of “AGAAAGACATGGACCGGTTTTCCCGGTAATCCGTATTTGCT (site AGAAAGACTAG)”, the “recombinant UMI read abundance (log10)” value is reported as 2.1. For “AGAAAGACATGGACCGGTTTTCCCGGTAATCCGTATTTGCT (site AGAAAGCCTAG)”, the “recombinant UMI read abundance (log10)” value was 0.934. In the case of “AGAAAGACATGGACCGGTTTTCCCGGTAATCCGTATTTGCT (site AGAAAGGCTAG)”, the “recombinant UMI read abundance (log10)” value is reported as 1.02. For “AGAAAGACATGGACCGGTTTTCCCGGTAATCCGTATTTGCT (site AGAAAGTCTAG)”, the “recombinant UMI read abundance (log10)” value was 0.572. With “AGAAAGGCATGGACCGGTTTTCCCGGTAATCCGTATTTGCA (site AGAAAGGCTAG)” the “recombinant UMI read abundance (log10)” value was 0. For “AGAAAGGCATGGACCGGTTTTCCCGGTAATCCGTATTTGCA (site AGAAAGGCTCG)”, the “recombinant UMI read abundance (log10)” value was 0.889. In the case of “AGAAAGGCATGGACCGGTTTTCCCGGTAATCCGTATTTGCA (site AGAAAGGCTGG)”, the “recombinant UMI read abundance (log10)” value is reported as 0. For “AGAAAGGCATGGACCGGTTTTCCCGGTAATCCGTATTTGCA (site AGAAAGGCTTG)”, the “recombinant UMI read abundance (log10)” value was 1.9. In the case of “AGAAATGCATGGACCGGTTTTCCCGGTAATCCGTATTTGCT (site AGAAAAGCTAG)”, the “recombinant UMI read abundance (log10)” value is reported as 1.53. With “AGAAATGCATGGACCGGTTTTCCCGGTAATCCGTATTTGCT (site AGAAACGCTAG)” the “recombinant UMI read abundance (log10)” value was 1.8. For “AGAAATGCATGGACCGGTTTTCCCGGTAATCCGTATTTGCT (site AGAAAGGCTAG)”, the “recombinant UMI read abundance (log10)” value was 0. In the case of “AGAAATGCATGGACCGGTTTTCCCGGTAATCCGTATTTGCT (site AGAAATGCTAG)”, the “recombinant UMI read abundance (log10)” value is reported as 2.23. For “AGAAATTCATGGACCGGTTTTCCCGGTAATCCGTATTTGCG (site AGAAATTCTCG)”, the “recombinant UMI read abundance (log10)” value was 1.94. In the case of “AGAACCGCATGGACCGGTTTTCCCGGTAATCCGTATTTGAC (site AGAACCGCTGT)”, the “recombinant UMI read abundance (log10)” value is reported as 2.35. With “AGAACGGCATGGACCGGTTTTCCCGGTAATCCGTATTTGCG (site AGAACGGCTCG)” the “recombinant UMI read abundance (log10)” value was 1.75. With “AGAACTACATGGACCGGTTTTCCCGGTAATCCGTATTTGGG (site AGAACTACTCC)” the “recombinant UMI read abundance (log10)” value was 0.434. For “AGAAGCACATGGACCGGTTTTCCCGGTAATCCGTATTTGTC (site AGAAGCACTGA)”, the “recombinant UMI read abundance (log10)” value was 3.13. With “AGAAGCCCATGGACCGGTTTTCCCGGTAATCCGTATTTGTC (site AGAAGCCCTGA)” the “recombinant UMI read abundance (log10)” value was 1.43. For “AGAAGGCCATGGACCGGTTTTCCCGGTAATCCGTATTTGAC (site AAAAGGCCTGT)”, the “recombinant UMI read abundance (log10)” value was 0. In the case of “AGAAGGCCATGGACCGGTTTTCCCGGTAATCCGTATTTGAC (site ACAAGGCCTGT)”, the “recombinant UMI read abundance (log10)” value is reported as 0. For “AGAAGGCCATGGACCGGTTTTCCCGGTAATCCGTATTTGAC (site AGAAGGCCTGT)”, the “recombinant UMI read abundance (log10)” value was 0. With “AGAAGGCCATGGACCGGTTTTCCCGGTAATCCGTATTTGAC (site ATAAGGCCTGT)” the “recombinant UMI read abundance (log10)” value was 0. In the case of “AGAATGGCATGGACCGGTTTTCCCGGTAATCCGTATTTGCT (site AGAAAGGCTAG)”, the “recombinant UMI read abundance (log10)” value is reported as 1.89. For “AGAATGGCATGGACCGGTTTTCCCGGTAATCCGTATTTGCT (site AGAACGGCTAG)”, the “recombinant UMI read abundance (log10)” value was 1.47. In the case of “AGAATGGCATGGACCGGTTTTCCCGGTAATCCGTATTTGCT (site AGAAGGGCTAG)”, the “recombinant UMI read abundance (log10)” value is reported as 0.34. In the case of “AGAATGGCATGGACCGGTTTTCCCGGTAATCCGTATTTGCT (site AGAATGGCTAG)”, the “recombinant UMI read abundance (log10)” value is reported as 2.19. With “AGACAGGCATGGACCGGTTTTCCCGGTAATCCGTATTTGCT (site AGAAAGGCTAG)” the “recombinant UMI read abundance (log10)” value was 0. With “AGACAGGCATGGACCGGTTTTCCCGGTAATCCGTATTTGCT (site AGACAGGCTAG)” the “recombinant UMI read abundance (log10)” value was 2.44. For “AGACAGGCATGGACCGGTTTTCCCGGTAATCCGTATTTGCT (site AGAGAGGCTAG)”, the “recombinant UMI read abundance (log10)” value was 0. For “AGACAGGCATGGACCGGTTTTCCCGGTAATCCGTATTTGCT (site AGATAGGCTAG)”, the “recombinant UMI read abundance (log10)” value was 0.555. In the case of “AGACTTGCATGGACCGGTTTTCCCGGTAATCCGTATTTGCA (site AGACTTGCTTG)”, the “recombinant UMI read abundance (log10)” value is reported as 0. With “AGACTTTCATGGACCGGTTTTCCCGGTAATCCGTATTTGAC (site AGACTTTCTGT)” the “recombinant UMI read abundance (log10)” value was 0. With “AGACTTTCATGGACCGGTTTTCCCGGTAATCCGTATTTGAC (site AGCCTTTCTGT)” the “recombinant UMI read abundance (log10)” value was 0. For “AGACTTTCATGGACCGGTTTTCCCGGTAATCCGTATTTGAC (site AGGCTTTCTGT)”, the “recombinant UMI read abundance (log10)” value was 0.503. With “AGACTTTCATGGACCGGTTTTCCCGGTAATCCGTATTTGAC (site AGTCTTTCTGT)” the “recombinant UMI read abundance (log10)” value was 0. With “AGAGCATCATGGACCGGTTTTCCCGGTAATCCGTATTTGAA (site AGAGCATCTTT)” the “recombinant UMI read abundance (log10)” value was 2.33. In the case of “AGAGCCCCATGGACCGGTTTTCCCGGTAATCCGTATTTGCA (site AGAGCCCCTTG)”, the “recombinant UMI read abundance (log10)” value is reported as 1.71. In the case of “AGAGGACCATGGACCGGTTTTCCCGGTAATCCGTATTTGGG (site AGAGGACCTCC)”, the “recombinant UMI read abundance (log10)” value is reported as 0.0119. In the case of “AGAGGACCATGGACCGGTTTTCCCGGTAATCCGTATTTGGG (site CGAGGACCTCC)”, the “recombinant UMI read abundance (log10)” value is reported as 0.0261. In the case of “AGAGGACCATGGACCGGTTTTCCCGGTAATCCGTATTTGGG (site GGAGGACCTCC)”, the “recombinant UMI read abundance (log10)” value is reported as 0.0142. For “AGAGGACCATGGACCGGTTTTCCCGGTAATCCGTATTTGGG (site TGAGGACCTCC)”, the “recombinant UMI read abundance (log10)” value was 0.0116. With “AGAGTATCATGGACCGGTTTTCCCGGTAATCCGTATTTGTG (site AGAGTATCTCA)” the “recombinant UMI read abundance (log10)” value was 2.98. In the case of “AGATAATCATGGACCGGTTTTCCCGGTAATCCGTATTTGTC (site AGATAATCTGA)”, the “recombinant UMI read abundance (log10)” value is reported as 2.16. With “AGATAGGCATGGACCGGTTTTCCCGGTAATCCGTATTTGCA (site AGATAGGCTTG)” the “recombinant UMI read abundance (log10)” value was 2.72. For “AGATCATCATGGACCGGTTTTCCCGGTAATCCGTATTTGTT (site AGATCATCTAA)”, the “recombinant UMI read abundance (log10)” value was 0.929. For “AGATCATCATGGACCGGTTTTCCCGGTAATCCGTATTTGTT (site CGATCATCTAG)”, the “recombinant UMI read abundance (log10)” value was 0. With “AGATCCGCATGGACCGGTTTTCCCGGTAATCCGTATTTGGT (site AGATCCGCTAC)” the “recombinant UMI read abundance (log10)” value was 0.811. In the case of “AGATGGCCATGGACCGGTTTTCCCGGTAATCCGTATTTGTG (site AGATGGCCTCA)”, the “recombinant UMI read abundance (log10)” value is reported as 0.0259. With “AGATTATCATGGACCGGTTTTCCCGGTAATCCGTATTTGCA (site ACAGTATCTTG)” the “recombinant UMI read abundance (log10)” value was 2.54. In the case of “AGATTATCATGGACCGGTTTTCCCGGTAATCCGTATTTGCA (site AGATTATCTTG)”, the “recombinant UMI read abundance (log10)” value is reported as 2.9. For “AGATTCGCATGGACCGGTTTTCCCGGTAATCCGTATTTGGA (site AGATTCGCTTC)”, the “recombinant UMI read abundance (log10)” value was 1.89. With “AGATTTACATGGACCGGTTTTCCCGGTAATCCGTATTTGGA (site AGATTTACTTC)” the “recombinant UMI read abundance (log10)” value was 0.959. For “AGCAAAACATGGACCGGTTTTCCCGGTAATCCGTATTTGCA (site AGCAAAACTTG)”, the “recombinant UMI read abundance (log10)” value was 0.735. With “AGCAAGGCATGGACCGGTTTTCCCGGTAATCCGTATTTGCA (site AGCAAGGCTTG)” the “recombinant UMI read abundance (log10)” value was 2.5.
